Results reported in paper PMC8159961, “Exploring protein hotspots by optimized fragment pharmacophores” (Nature Communications, 2021).
Values joined by “and” are separate entries in the source; they are usually repeats but may differ in a detail not shown here. Equal entries are not always repeated. Where two headings read alike, the source gives them in different places.

Tests used:
human 5-HT6 receptor = target: T1, human 5-HT6 receptor (Homo sapiens, UniProt P50406); test: GPCR radioligand binding assay, [3H]-LSD displacement, HEK293 membranes; conditions: for experimental hit status, 5-HT6: 1 = hit, 0 = no hit, tested at 10 µM, hit = 50% or stronger inhibition
T1 construct: expressed in transfected cells
T1 sequence (P50406 whole entry): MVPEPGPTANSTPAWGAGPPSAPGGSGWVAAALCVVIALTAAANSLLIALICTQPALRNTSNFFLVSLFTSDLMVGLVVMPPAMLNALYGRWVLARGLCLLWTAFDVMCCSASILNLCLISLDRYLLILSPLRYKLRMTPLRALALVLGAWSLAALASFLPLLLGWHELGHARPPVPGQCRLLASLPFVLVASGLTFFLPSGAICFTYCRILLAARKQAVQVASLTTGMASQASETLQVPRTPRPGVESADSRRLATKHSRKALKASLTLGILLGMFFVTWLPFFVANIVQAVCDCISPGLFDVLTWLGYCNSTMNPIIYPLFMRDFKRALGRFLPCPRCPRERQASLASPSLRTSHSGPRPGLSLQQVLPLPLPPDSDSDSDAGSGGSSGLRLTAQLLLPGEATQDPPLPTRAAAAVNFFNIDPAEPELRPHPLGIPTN

human 5-HT1A receptor = target: T2, human 5-HT1A receptor (Homo sapiens, UniProt P08908); test: GPCR radioligand binding assay, [3H]-8-OH-DPAT displacement, HEK293 membranes; conditions: for experimental hit status, 5-HT1: 1 = hit, 0 = no hit, tested at 10 µM, hit = 50% or stronger inhibition
T2 construct: expressed in transfected cells
T2 sequence (P08908 1-422): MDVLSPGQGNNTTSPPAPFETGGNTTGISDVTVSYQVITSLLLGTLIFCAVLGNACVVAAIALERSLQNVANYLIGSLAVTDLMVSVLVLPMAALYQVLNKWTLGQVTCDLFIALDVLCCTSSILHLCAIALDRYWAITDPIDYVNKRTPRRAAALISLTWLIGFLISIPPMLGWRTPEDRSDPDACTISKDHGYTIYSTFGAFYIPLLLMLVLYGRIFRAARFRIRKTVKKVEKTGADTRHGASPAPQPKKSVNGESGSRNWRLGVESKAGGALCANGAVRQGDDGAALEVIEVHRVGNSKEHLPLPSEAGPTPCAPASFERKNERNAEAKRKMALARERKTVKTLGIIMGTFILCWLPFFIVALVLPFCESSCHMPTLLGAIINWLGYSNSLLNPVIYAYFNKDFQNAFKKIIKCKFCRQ

human thrombin = target: T3, human thrombin (Homo sapiens, UniProt P00734); test: Protease inhibitory assay, chromogenic substrate S-2238; assay type: biochemical; conditions: for Ki: plate layout, label = plate position, Cheng-Prusoff, Km 2.6 µM, read-out: Thrombin Ki; for experimental hit status, Thrombin: 1 = hit, 0 = no hit, screening at 200 µM
T3 construct: human thrombin; purchased Sigma-Aldrich

human 5-HT7b receptor = target: T4, human 5-HT7b receptor (Homo sapiens, UniProt P34969); test: GPCR radioligand binding assay, [3H]-5-CT displacement, HEK293 membranes; conditions: for experimental hit status, 5-HT7: 1 = hit, 0 = no hit, tested at 10 µM, hit = 50% or stronger inhibition
T4 construct: expressed in transfected cells
T4 sequence (P34969 1-432): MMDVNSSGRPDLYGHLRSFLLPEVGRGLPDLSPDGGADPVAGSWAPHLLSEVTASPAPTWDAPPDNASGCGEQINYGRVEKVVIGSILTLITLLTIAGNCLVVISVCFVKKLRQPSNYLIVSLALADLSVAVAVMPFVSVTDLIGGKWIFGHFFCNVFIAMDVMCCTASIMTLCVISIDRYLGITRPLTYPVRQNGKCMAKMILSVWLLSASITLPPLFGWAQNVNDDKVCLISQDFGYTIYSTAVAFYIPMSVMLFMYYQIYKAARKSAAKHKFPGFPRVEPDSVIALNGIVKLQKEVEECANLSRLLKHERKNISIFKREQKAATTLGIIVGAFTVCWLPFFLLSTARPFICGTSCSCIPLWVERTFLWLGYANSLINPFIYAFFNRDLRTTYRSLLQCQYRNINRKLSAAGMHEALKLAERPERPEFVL

bovine factor Xa = target: T5, bovine factor Xa (Bos taurus, UniProt P00743); test: Protease inhibitory assay, chromogenic substrate S-2222; assay type: biochemical; conditions: for experimental hit status, Factor Xa: 1 = hit, 0 = no hit, screening at 200 µM
T5 construct: bovine factor Xa, Chromogenix, 2 nkat/mL; purchased Chromogenix
T5 sequence (P00743 234-492 limits assumed): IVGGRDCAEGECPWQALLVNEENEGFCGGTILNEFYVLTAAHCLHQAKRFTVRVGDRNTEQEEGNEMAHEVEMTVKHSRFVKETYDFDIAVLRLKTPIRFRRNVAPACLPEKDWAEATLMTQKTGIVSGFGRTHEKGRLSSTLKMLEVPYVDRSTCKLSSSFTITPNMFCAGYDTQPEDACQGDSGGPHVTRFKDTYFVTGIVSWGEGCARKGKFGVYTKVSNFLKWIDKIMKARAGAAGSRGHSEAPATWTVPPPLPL
T5 sequence (P00743 41-180 partner limits assumed): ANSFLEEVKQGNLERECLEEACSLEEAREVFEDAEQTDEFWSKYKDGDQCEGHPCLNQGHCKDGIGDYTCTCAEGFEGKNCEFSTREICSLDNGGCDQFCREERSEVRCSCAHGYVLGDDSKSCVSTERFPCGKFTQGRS

recombinant SETD2 = target: T6, recombinant SETD2 (Homo sapiens, UniProt Q9BYW2); test: SETD2 Chemiluminescence assay (H3K36 tri-methylation); assay type: biochemical; conditions: for experimental hit status, SETD2: 1 = hit, 0 = no hit; for SETD2 signal normalised to positive control and internally to compound: nM], replicates
T6 construct: purchased BPS Bioscience 52060
T6 sequence (Q9BYW2 1418-1714 limits assumed): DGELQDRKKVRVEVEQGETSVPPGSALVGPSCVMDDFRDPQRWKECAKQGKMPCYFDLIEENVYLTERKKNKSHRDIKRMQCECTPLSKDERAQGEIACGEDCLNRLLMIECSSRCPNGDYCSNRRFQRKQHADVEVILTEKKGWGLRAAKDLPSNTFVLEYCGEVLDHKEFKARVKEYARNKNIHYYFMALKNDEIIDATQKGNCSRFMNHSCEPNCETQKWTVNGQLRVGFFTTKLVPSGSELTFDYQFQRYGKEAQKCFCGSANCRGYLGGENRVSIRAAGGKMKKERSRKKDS

[1] = 10 µM, read-out: 5-HT6 % Inhibition by plate position
[2] = 5-HT6, average of exp_1 and exp_2, read-out: %inh 5-HT6 average
[3] = 5-HT6, average, values below 0 and above 100% were set as 0 and 100, read-out: %inh 5-HT6 corrected*
[4] = 5-HT6, replicate exp_1, read-out: %inh 5-HT6 exp_1
[5] = 5-HT6, replicate exp_2, read-out: %inh 5-HT6 exp_2
[6] = 10 µM, read-out: 5-HT1A % Inhibition by plate position
[7] = 5-HT1A, average of exp_1 and exp_2, read-out: %inh 5-HT1A average
[8] = 5-HT1A, average, values below 0 and above 100% were set as 0 and 100, read-out: %inh 5-HT1A corrected*
[9] = 5-HT1A, replicate exp_1, read-out: %inh 5-HT1A exp_1
[10] = 5-HT1A, replicate exp_2, read-out: %inh 5-HT1A exp_2
[11] = 10 µM, read-out: 5-HT7 % Inhibition by plate position
[12] = 5-HT7, average of exp_1 and exp_2, read-out: %inh 5-HT7 average
[13] = 5-HT7, average, values below 0 and above 100% were set as 0 and 100, read-out: %inh 5-HT7 corrected*
[14] = 5-HT7, replicate exp_1, read-out: %inh 5-HT7 exp_1
[15] = 5-HT7, replicate exp_2, read-out: %inh 5-HT7 exp_2

| Structure (SMILES) | inhibition at 10 µM (human 5-HT6 receptor; [1]) [%] | inhibition at 10 µM (human 5-HT6 receptor; [2]) [%] | inhibition at 10 µM (human 5-HT6 receptor; [3]) [%] | inhibition at 10 µM (human 5-HT6 receptor; [4]) [%] | inhibition at 10 µM (human 5-HT6 receptor; [5]) [%] | inhibition at 10 µM (human 5-HT1A receptor; [6]) [%] | inhibition at 10 µM (human 5-HT1A receptor; [7]) [%] | inhibition at 10 µM (human 5-HT1A receptor; [8]) [%] | inhibition at 10 µM (human 5-HT1A receptor; [9]) [%] | inhibition at 10 µM (human 5-HT1A receptor; [10]) [%] | inhibition at 10 µM (human 5-HT7b receptor; [11]) [%] | inhibition at 10 µM (human 5-HT7b receptor; [12]) [%] | inhibition at 10 µM (human 5-HT7b receptor; [13]) [%] | inhibition at 10 µM (human 5-HT7b receptor; [14]) [%] | inhibition at 10 µM (human 5-HT7b receptor; [15]) [%] | experimental hit status, 5-HT6 (human 5-HT6 receptor) | experimental hit status, 5-HT1 (human 5-HT1A receptor) | experimental hit status, Thrombin (human thrombin) | experimental hit status, SETD2 (recombinant SETD2) | experimental hit status, 5-HT7 (human 5-HT7b receptor) | further results |
| --- | --- | --- | --- | --- | --- | --- | --- | --- | --- | --- | --- | --- | --- | --- | --- | --- | --- | --- | --- | --- | --- |
| CC(=O)c1sc(-c2ccc(O)cc2)nc1C [E1] | 65 | 65 | 65 | 71 | 58 | 0 | -8.44 | 0 | 1.63 | -19 | 43 | 43 | 43 | 36 | 50 | – | – | – | – | – | Ki (human thrombin): 229 µM; Ki (bovine factor Xa): 734 µM |
| Cc1cc2ccccc2nc1N [SX001] | 33 | 33 | 33 | 29 | 37 | 0 | -13 | 0 | -0.697 | -25 | 1.66 | 1.66 | 1.66 | 7 | -3.75 | 0 | 0 | 0 | 0 | 0 | Ki (bovine factor Xa): 149 µM; experimental hit status, Factor Xa (bovine factor Xa): 1 |
| c1cnc2cccnc2c1 [SX002] | 24 | 24 | 24 | 27 | 21 | 0 | -0.719 | 0 | -9 | 8 | 35 | 35 | 35 | 39 | 31 | 0 | 0 | 1 | 0 | 0 | Ki (human thrombin): 163 µM; experimental hit status, Factor Xa (bovine factor Xa): 0 |
| c1ccc2[nH]ccc2c1 [SX004] | – | – | – | – | – | – | – | – | – | – | – | – | – | – | – | 0 | 0 | 0 | 0 | 0 | inhibition at 10 µM (human 5-HT6 receptor; read-out: 5-HT6 % Inhibition by plate position): 16%; inhibition at 10 µM (human 5-HT6 receptor; read-out: %inh 5-HT6 average): 16%; inhibition at 10 µM (human 5-HT6 receptor; read-out: %inh 5-HT6 corrected*): 16%; inhibition at 10 µM (human 5-HT6 receptor; read-out: %inh 5-HT6 exp_1): 16%; inhibition at 10 µM (human 5-HT6 receptor; read-out: %inh 5-HT6 exp_2): 16%; inhibition at 10 µM (human 5-HT1A receptor; read-out: 5-HT1A % Inhibition by plate position): 0%; inhibition at 10 µM (human 5-HT1A receptor; read-out: %inh 5-HT1A average): -11%; inhibition at 10 µM (human 5-HT1A receptor; read-out: %inh 5-HT1A corrected*): 0%; inhibition at 10 µM (human 5-HT1A receptor; read-out: %inh 5-HT1A exp_1): -0.425%; inhibition at 10 µM (human 5-HT1A receptor; read-out: %inh 5-HT1A exp_2): -21%; inhibition at 10 µM (human 5-HT7b receptor; read-out: 5-HT7 % Inhibition by plate position): 0%; inhibition at 10 µM (human 5-HT7b receptor; read-out: %inh 5-HT7 average): -2.64%; inhibition at 10 µM (human 5-HT7b receptor; read-out: %inh 5-HT7 corrected*): 0%; inhibition at 10 µM (human 5-HT7b receptor; read-out: %inh 5-HT7 exp_1): 19%; inhibition at 10 µM (human 5-HT7b receptor; read-out: %inh 5-HT7 exp_2): -24%; experimental hit status, Factor Xa (bovine factor Xa): 0 |
| CS(=O)(=O)Nc1ccc(C(=O)O)cc1 [SX084] | 38 | 38 | 38 | 38 | 38 | 9 | 9 | 9 | 9 | 9 | 9 | 9 | 9 | 5.33 | 13 | – | – | – | – | – | IC50 (recombinant SETD2; chemiluminescence-based enzymatic assay): 500 µM; SETD2 signal normalised to positive control and internally to compound (recombinant SETD2; fragment concentration 4.7 [log): 1.05 and 0.84; SETD2 signal normalised to positive control and internally to compound (recombinant SETD2; fragment concentration 5 [log): 0.76 and 0.6; SETD2 signal normalised to positive control and internally to compound (recombinant SETD2; fragment concentration 5.3 [log): 0.62 and 0.74; SETD2 signal normalised to positive control and internally to compound (recombinant SETD2; fragment concentration 5.6 [log): 0.8 and 0.95; SETD2 signal normalised to positive control and internally to compound (recombinant SETD2; fragment concentration 5.9 [log): 0.66 and 0.73 |
